Results as given in PubChem BioAssay AID248 (DTP/NCI, 2004).
Several values for one entry are separate records, joined by “and”; a condition that tells them apart may be missing. Equal values may be shown once. Inconclusive results and toxic doses are left out. Rule as the data show it: active = T/C of 150% or more; inactive = T/C below 125%. Square brackets hold non-standard residues; d marks the D form. Peptide text beside a SMILES is read from it. * marks the point of attachment. ONb = O=[N+]([O-])c1ccc(CO*)cc1; Cbz = O=C(OCc1ccccc1)*; Nva = CCC[CH](N)C(=O)O; Bn = c1ccc(C*)cc1

Tested on: L1210 leukemia ip in BDF1 mice, survival T/C
Experiment: NCI In Vivo Anticancer Drug Screen. Data for tumor model L1210 Leukemia (intraperitoneal) in B6D2F1 (BDF1) mice
Details: endpoint: mean survival time, higher = longer survival
Summary of the method: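 Tumor cells were implanted, animals were treated, and survival was followed. The result divides the treated measurement by the vehicle-control measurement.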

[1] = dose: 100.0 mg/kg/injection, schedule: Q01DX001 (ip), vehicle: Klucel (hydroxypropylcellulose) (HPC)
[2] = dose: 200.0 mg/kg/injection, schedule: Q01DX001 (ip), vehicle: Klucel (hydroxypropylcellulose) (HPC)
[3] = dose: 400.0 mg/kg/injection, schedule: Q01DX001 (ip), vehicle: Klucel (hydroxypropylcellulose) (HPC)
[4] = dose: 100.0 mg/kg/injection, schedule: Q01DX009 (ip), vehicle: Klucel (hydroxypropylcellulose) (HPC)
[5] = dose: 200.0 mg/kg/injection, schedule: Q01DX009 (ip), vehicle: Klucel (hydroxypropylcellulose) (HPC)
[6] = dose: 400.0 mg/kg/injection, schedule: Q01DX009 (ip), vehicle: Klucel (hydroxypropylcellulose) (HPC)
[7] = dose: 50.0 mg/kg/injection, schedule: Q01DX009 (ip), vehicle: saline
[8] = dose: 50.0 mg/kg/injection, schedule: Q01DX001 (ip), vehicle: saline
[9] = dose: 100.0 mg/kg/injection, schedule: Q01DX001 (ip), vehicle: saline
[10] = dose: 200.0 mg/kg/injection, schedule: Q01DX001 (ip), vehicle: saline

Measured: T/C

CC(CC(=O)NC(N)=O)(NC(N)=O)NC(N)=O
inactive: [1] 100 % of control | [2] 101 % of control | [3] 95 % of control

Nc1cc([N+](=O)[O-])cc([N+](=O)[O-])c1Cl
inactive: [1] 93 % of control | [2] 96 % of control | [3] 101 % of control

CC1N=C(c2ccccc2)C2(c3ccccc3)C(C)N12 (stereo unspecified)
inactive: [1] 97 % of control | [2] 94 % of control

Cc1ccc([I+]c2ccc(C)cc2C)c(C)c1
inactive: dose: 0.25 mg/kg/injection, schedule: Q01DX015 (ip), vehicle: saline 96 % of control | dose: 0.5 mg/kg/injection, schedule: Q01DX015 (ip), vehicle: saline 96 % of control | dose: 1.0 mg/kg/injection, schedule: Q01DX015 (ip), vehicle: saline 97 % of control | dose: 1.56 mg/kg/injection, schedule: Q01DX009 (ip), vehicle: saline with Tween-80 112 % of control | dose: 1.56 mg/kg/injection, schedule: Q04DX003 (ip), vehicle: saline 95 % of control | dose: 2.0 mg/kg/injection, schedule: Q01DX015 (ip), vehicle: saline 97 % of control | dose: 3.12 mg/kg/injection, schedule: Q01DX009 (ip), vehicle: saline with Tween-80 119 % of control | dose: 3.12 mg/kg/injection, schedule: Q04DX003 (ip), vehicle: saline 91 % of control | dose: 6.25 mg/kg/injection, schedule: Q01DX009 (ip), vehicle: saline with Tween-80 110 % of control | dose: 6.25 mg/kg/injection, schedule: Q04DX003 (ip), vehicle: saline 95 % of control | dose: 12.5 mg/kg/injection, schedule: Q01DX001 (ip), vehicle: saline 94 % of control | dose: 25.0 mg/kg/injection, schedule: Q01DX001 (ip), vehicle: saline 100 % of control

Cc1ccc(NC2OC(CO)C(O)C(O)C2O)cc1 (stereo unspecified)
inactive: dose: 75.0 mg/kg/injection, schedule: Q01DX001 (ip), vehicle: steriod suspending solution 99 % of control | dose: 150.0 mg/kg/injection, schedule: Q01DX001 (ip), vehicle: steriod suspending solution 94 % of control | dose: 300.0 mg/kg/injection, schedule: Q01DX001 (ip), vehicle: steriod suspending solution 94 % of control

CCCC(NC(=O)C(CSCc1ccccc1)NC(=O)OCc1ccccc1)C(=O)OCc1ccc([N+](=O)[O-])cc1 (stereo unspecified) (Cbz-Cys(Bn)-[Nva]-ONb; configuration not given here)
inactive: dose: 100.0 mg/kg/injection, schedule: Q01DX001 (ip), vehicle: other 90 % of control | dose: 200.0 mg/kg/injection, schedule: Q01DX001 (ip), vehicle: other 90 % of control | dose: 400.0 mg/kg/injection, schedule: Q01DX001 (ip), vehicle: other 89 % of control

CC1(CO)C2CCC(O)C1C2 (stereo unspecified)
inactive: dose: 75.0 mg/kg/injection, schedule: Q01DX009 (ip), vehicle: saline 103 % of control | dose: 75.0 mg/kg/injection, schedule: Q04DX003 (ip), vehicle: saline 94 % of control | dose: 150.0 mg/kg/injection, schedule: Q01DX009 (ip), vehicle: saline 97 % of control | dose: 150.0 mg/kg/injection, schedule: Q04DX003 (ip), vehicle: saline 95 % of control | dose: 300.0 mg/kg/injection, schedule: Q01DX009 (ip), vehicle: saline 100 % of control | dose: 300.0 mg/kg/injection, schedule: Q04DX003 (ip), vehicle: saline 102 % of control

CCOC(=O)c1cc(Cl)c(N)c(Cl)c1
inactive: [4] 93 % of control | [5] 90 % of control | [6] 100 % of control

O=S(/C=C/c1ccccc1)c1ccc(Br)cc1 (stereo unspecified)
inactive: dose: 100.0 mg/kg/injection, schedule: Q04DX003 (ip), vehicle: saline 100 % of control | dose: 200.0 mg/kg/injection, schedule: Q04DX003 (ip), vehicle: saline 93 % of control | dose: 400.0 mg/kg/injection, schedule: Q04DX003 (ip), vehicle: saline 100 % of control

COc1ccc(OC)c(NC(=O)Nc2cccc(C(C)=O)c2)c1
inactive: [4] 96 % of control | [5] 106 % of control | [6] 102 % of control

CCC1=[N+](C)C(C)(C)CC(C)O1 (stereo unspecified)
inactive: dose: 6.25 mg/kg/injection, schedule: Q01DX009 (ip), vehicle: saline 102 % of control | dose: 6.25 mg/kg/injection, schedule: Q04DX003 (ip), vehicle: saline with Tween-80 98 % of control | dose: 12.5 mg/kg/injection, schedule: Q01DX009 (ip), vehicle: saline 102 % of control | dose: 12.5 mg/kg/injection, schedule: Q04DX003 (ip), vehicle: saline with Tween-80 94 % of control | dose: 25.0 mg/kg/injection, schedule: Q01DX009 (ip), vehicle: saline 107 % of control | dose: 25.0 mg/kg/injection, schedule: Q04DX003 (ip), vehicle: saline with Tween-80 94 % of control | [7] 102 % of control | dose: 50.0 mg/kg/injection, schedule: Q04DX003 (ip), vehicle: saline with Tween-80 94 % of control and 95 % of control

NCCCC(=O)NCCCCCCNCCCCCCNC(=O)CCCN
inactive: [8] 98 % of control | [9] 104 % of control

CC1(C)N=C(N)N=C(N)N1c1ccc(OCCCNC(=O)Nc2cccc(S(=O)(=O)F)c2)c(Cl)c1
inactive: [7] 114 % of control

CCOC1C=CC(O)C(CO)O1 (stereo unspecified)
inactive: [9] 101 % of control | [10] 98 % of control | dose: 400.0 mg/kg/injection, schedule: Q01DX001 (ip), vehicle: saline 95 % of control

CCCCCCCC(=O)Nc1ccc(F)cc1
inactive: dose: 100.0 mg/kg/injection, schedule: Q04DX003 (ip), vehicle: acetone 95 % of control | dose: 200.0 mg/kg/injection, schedule: Q04DX003 (ip), vehicle: acetone 95 % of control | dose: 400.0 mg/kg/injection, schedule: Q04DX003 (ip), vehicle: acetone 90 % of control

CC(C)C(=O)NCc1ccccc1
inactive: dose: 100.0 mg/kg/injection, schedule: Q04DX002 (ip), vehicle: Klucel (hydroxypropylcellulose) (HPC) 104 % of control | dose: 200.0 mg/kg/injection, schedule: Q04DX002 (ip), vehicle: Klucel (hydroxypropylcellulose) (HPC) 101 % of control | dose: 400.0 mg/kg/injection, schedule: Q04DX002 (ip), vehicle: Klucel (hydroxypropylcellulose) (HPC) 90 % of control

CNC(=O)C(c1ccccc1)C(O)c1ccccc1 (stereo unspecified)
inactive: [8] 103 % of control | [9] 101 % of control | [10] 103 % of control

CCCCCCCCCCOP(N)(=O)OCCCCCCCCCC
inactive: dose: 25.0 mg/kg/injection, schedule: Q01DX009 (ip), vehicle: carboxymethylcellulose (CMC) 98 % of control | dose: 50.0 mg/kg/injection, schedule: Q01DX009 (ip), vehicle: carboxymethylcellulose (CMC) 104 % of control | dose: 50.0 mg/kg/injection, schedule: Q04DX003 (ip), vehicle: carboxymethylcellulose (CMC) 89 % of control | dose: 100.0 mg/kg/injection, schedule: Q01DX009 (ip), vehicle: carboxymethylcellulose (CMC) 93 % of control | dose: 100.0 mg/kg/injection, schedule: Q04DX003 (ip), vehicle: carboxymethylcellulose (CMC) 94 % of control | dose: 225.0 mg/kg/injection, schedule: Q01DX009 (ip), vehicle: carboxymethylcellulose (CMC) 104 % of control

NC(N)=NN=C(c1ccc([N+](=O)[O-])s1)c1ccc([N+](=O)[O-])s1
inactive: dose: 15.0 mg/kg/injection, schedule: Q01DX Z (ip), vehicle: carboxymethylcellulose (CMC) 97 % of control | dose: 30.0 mg/kg/injection, schedule: Q01DX Z (ip), vehicle: carboxymethylcellulose (CMC) 95 % of control | dose: 60.0 mg/kg/injection, schedule: Q01DX Z (ip), vehicle: carboxymethylcellulose (CMC) 97 % of control and 105 % of control | dose: 120.0 mg/kg/injection, schedule: Q01DX Z (ip), vehicle: carboxymethylcellulose (CMC) 94 % of control and 95 % of control | dose: 240.0 mg/kg/injection, schedule: Q01DX Z (ip), vehicle: carboxymethylcellulose (CMC) 100 % of control | dose: 480.0 mg/kg/injection, schedule: Q01DX Z (ip), vehicle: carboxymethylcellulose (CMC) 90 % of control
